Series [1] addresses T1, Tyrosine-protein phosphatase non-receptor type 1 (Homo sapiens) (UniProt P18031).
T1 sequence (whole entry): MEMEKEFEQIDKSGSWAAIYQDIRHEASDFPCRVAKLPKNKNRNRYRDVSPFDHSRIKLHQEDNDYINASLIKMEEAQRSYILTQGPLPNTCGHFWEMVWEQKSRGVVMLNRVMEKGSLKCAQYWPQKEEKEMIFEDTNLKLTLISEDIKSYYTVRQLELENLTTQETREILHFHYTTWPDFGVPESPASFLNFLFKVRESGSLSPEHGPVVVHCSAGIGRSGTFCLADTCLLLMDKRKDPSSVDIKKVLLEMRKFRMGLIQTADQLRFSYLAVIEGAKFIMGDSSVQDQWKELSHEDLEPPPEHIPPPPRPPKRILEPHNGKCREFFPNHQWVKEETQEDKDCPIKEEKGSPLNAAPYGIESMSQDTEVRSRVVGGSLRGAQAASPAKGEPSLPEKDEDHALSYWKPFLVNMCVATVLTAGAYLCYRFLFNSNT
The experiment in a line: Inhibition of recombinant human PTP1B (1 to 322 residues) expressed in Escherichia coli at 1 uM using IR5 (1142 to 1153 residues) as substrate incubated for 30 mins by spectrophotometry analysis relative to control.

The test system of series [2] is HepG2. The experiment in a line: Cytotoxicity against human HepG2 cells assessed as […] cell viability at 50 uM measured after 24 hrs by MTT assay relative to control. It is filed as cell-based. The conditions noted are these: hepg2, 24 h. Background: Formazan colour is commonly taken as a measure of viable cells.
The target of series [3] is T2, Tyrosine-protein phosphatase non-receptor type 1 (Homo sapiens, UniProt P18031).
T2 sequence (P18031 whole entry): T1 sequence (whole entry)
The experiment in a line: Inhibition of recombinant human PTP1B (1 to 322 residues) expressed in Escherichia coli using pNPP as substrate.

Series [4] is filed under the species Homo sapiens. The experiment in a line: Selectivity index, ratio of IC50 for recombinant human TC-PTP (2 to 315 residues) to IC50 for recombinant human PTP1B (1 to 322 residues) expressed in Escherichia coli.
The target in series [5] is T3, Tyrosine-protein phosphatase non-receptor type 2 (Homo sapiens, UniProt P17706).
T3 sequence (P17706 whole entry): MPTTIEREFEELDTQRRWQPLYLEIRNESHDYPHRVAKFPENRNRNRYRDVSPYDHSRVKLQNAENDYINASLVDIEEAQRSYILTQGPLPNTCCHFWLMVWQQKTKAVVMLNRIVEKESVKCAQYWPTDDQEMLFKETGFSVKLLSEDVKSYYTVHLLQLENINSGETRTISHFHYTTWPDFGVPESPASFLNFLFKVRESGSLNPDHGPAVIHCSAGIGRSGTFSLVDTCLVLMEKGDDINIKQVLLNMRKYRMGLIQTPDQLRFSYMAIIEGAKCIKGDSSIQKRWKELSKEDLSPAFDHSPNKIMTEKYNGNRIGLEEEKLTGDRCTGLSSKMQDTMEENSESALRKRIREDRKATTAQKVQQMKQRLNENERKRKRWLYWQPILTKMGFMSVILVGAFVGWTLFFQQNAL
The experiment in a line: Inhibition of recombinant human TC-PTP (2 to 315 residues) expressed in Escherichia coli using pNPP as substrate.

Series [6] concerns the target T2, Tyrosine-protein phosphatase non-receptor type 1. Briefly: Inhibition of PTP1B (unknown origin).
The test system of series [7] is C2C12. Briefly: Induction of glucose uptake in mouse C2C12 cells at 2 uM pretreated with insulin for 30 mins followed by compound treatment for 90 mins by fluorescence microplate reader assay relative to control. It is filed as functional. The conditions noted are these: 1.5 h.
A short description of series [8]: Stability of the compound measured after 5 days. The class given is physicochemical. The conditions noted are these: 120 h; time 5 day.
Series [9] is described as follows: Stability of the compound measured after 2 months at 4 degreeC. The class given is physicochemical. The note with it: 1460 h.
A short description of series [10]: Stability of the compound measured up to 5 days. The class given is physicochemical. The note with it: 120 h; time <=5 day.

A value given as a limit tells only on which side of the number the result lay.

The record followed here is ChEMBL document CHEMBL4811318, “Pyrrolo[1,2-a]quinoxal-5-inium salts and 4,5-dihydropyrrolo[1,2-a]quinoxalines: Synthesis, activity and computational docking for protein tyrosine phosphatase 1B” (Bioorg Med Chem, 2021).

As a reminder, the inhibition is how much of the control response was suppressed. In general, IC50 refers to the point on the concentration scale where inhibition reaches its midpoint. With `COc1ccc2c(c1)NC(C)c1cccn1-2` (stereo not drawn), the inhibition in [1] is 56%. The Activity in series [2] was above 90%. Further, the IC50 in series [3] amounted to 1390 nM.
In the case of `COc1ccc2c(c1)nc(C)c1cccn12`, in series [2], the Activity is above 90%. In addition, the 50% inhibitory concentration (IC50) in series [3] is above 10000 nM.
In the case of `Cc1nc2ccccc2n2cccc12`, the Activity in series [2] is above 90%. For the same compound, the Ratio IC50 in series [4] was found to be 4. In series [5], the IC50 turned out to be 3950 nM.
As for `Cc1cc2nc(C)c3cccn3c2cc1C`, the Activity in series [2] was above 90%. Besides, the IC50 in series [3] was above 10000 nM.
Consider `Cc1c2cccn2c2ccccc2[n+]1C.[I-]`, for which the inhibition in series [1] was found to be 22%. Moreover, the Activity in [2] is given as above 90%. Moreover, the IC50 in series [3] was 320 nM.
Regarding `Cc1nc2ccc(Cl)cc2n2cccc12`, the Activity in [2] is listed as above 90%. The values for the IC50 in [3] and in series [5] were 600 nM and above 25000 nM, respectively. Moreover, the Ratio IC50 in [4] is above 41.
Regarding `Cc1c2cccn2c2cc(Cl)ccc2[n+]1C.[I-]`, the inhibition in series [1] came to 22%. The Activity in series [2] is above 90%. The half-inhibitory concentration (IC50) was 830 nM in series [3] and above 5000 nM in series [5]. Moreover, in series [4], the Ratio IC50 is above 6.02.
On the same counts, the results for `Cc1c2cccn2c2ccc(C(F)(F)F)cc2[n+]1C.[I-]` are 22%, above 90%, 580 nM, 410 nM and 0.71.
Compound `c1ccc(Cc2nc3ccccc3n3cccc23)cc1` displayed an IC50 in series [6] of 240 nM.
On to `CC1Nc2cc(Cl)c(Cl)cc2-n2cccc21` (stereo not drawn), for which the inhibition in series [1] came to 56%. Also, the Activity is on record as above 90% in series [2] and 150% in series [7]. Besides, the 50% inhibitory concentration (IC50) in [3] is 950 nM; in series [5] it was above 5000 nM. In addition, in series [4], the Ratio IC50 is above 5.26.
As to `CC1(C)CC[C@]2(C(=O)O)CC[C@@H]3C(=CC[C@H]4[C@H]3CC[C@@H]3[C@@H]4CC[C@H](O[C@@H]4O[C@H](CO)[C@@H](O)[C@H](O)[C@H]4O)C3(C)C)[C@@H]2C1`, the IC50 in [6] stood at 1400 nM.
In the case of `CCCC[n+]1c(C)c2cccn2c2ccccc21.[I-]`, the inhibition in series [1] is 22%. Moreover, in [2], the Activity was above 90%. In addition, in [3], the IC50 came to 1910 nM.
On to `Cc1nc2cc(C(F)(F)F)ccc2n2cccc12`, for which, in series [2], the Activity is listed as above 90%. Further, the 50% inhibitory concentration (IC50) in [3] is above 10000 nM.
On to `CCCCCCS(=O)(=O)NC(=O)c1ccc(CSCc2ccc(-c3ccccc3)cc2)cc1`, for which, in [6], the midpoint of inhibition, the IC50, lay at 250 nM.
Consider `Cc1cc2c(cc1C)[n+](C)c(C)c1cccn12.[I-]`, for which the inhibition in series [1] is 22%. Further, the Activity in series [2] is listed as above 90%.
In the case of `Cc1cc2c(cc1C)-n1cccc1C(C)N2` (stereo not drawn), in series [1], the inhibition is 56%. Moreover, in series [2], the Activity is on record as above 90%.
In turn, `C=C(C)[C@@H]1CC[C@]2(C)CC[C@]3(C)[C@H](CC[C@@H]4[C@@]5(C)CC[C@H](O)C(C)(C)[C@@H]5CC[C@]43C)[C@@H]12` [LUPEOL] registered an IC50 in series [6] of 560 nM.
For the compound `Cc1ccc2c(c1)NC(C)c1cccn1-2` (stereo not drawn), the inhibition in [1] came out at 56%.
As for `Cc1ccc2c(c1)nc(C)c1cccn12`, the Activity in series [2] was above 90%. For the same compound, in series [3], the IC50 was above 10000 nM.
Take `CC1Nc2ccc(Cl)cc2-n2cccc21` (stereo not drawn): the inhibition in series [1] came out at 56%. For the same compound, in [2], the Activity is given as above 90%. Moreover, the IC50 in series [3] was 450 nM; in series [5], above 5000 nM. Also, in series [4], the Ratio IC50 was above 11.1.
On to `Cc1ccc2c(c1)[n+](C)c(C)c1cccn12.[I-]`, for which the inhibition in series [1] stood at 22%. For the same compound, the Activity in [2] is above 90%. Moreover, in [3], the IC50 was above 10000 nM.
In series [6], `C=C(C)[C@@H]1CC[C@]2(C(=O)O)CC[C@]3(C)[C@H](CC[C@@H]4[C@@]5(C)CC[C@H](O)C(C)(C)[C@@H]5CC[C@]43C)[C@@H]12` [BETULINIC ACID] gave an IC50 of 1500 nM.
As to `CC1Nc2ccccc2-n2cccc21` (stereo not drawn), in series [1], the inhibition came to 56%. In addition, the Activity in [2] is given as above 90%. For the same compound, the Stabilty result in [8] is on record as “Unstable”; in series [9], “Stable”; in [10], “Stable”. In series [3], the concentration for half-maximal inhibition (IC50) was found to be 410 nM.
With `COc1ccc2c(c1)[n+](C)c(C)c1cccn12.[I-]`, in series [1], the inhibition came out at 22%. The Activity in series [2] was above 90%. In series [3], the IC50 was above 10000 nM.
Take `CC1c2cccn2-c2ccccc2N1C` (stereo not drawn): the inhibition in series [1] was determined as 56%. Further, the Activity in series [2] is above 90%. For the same compound, the figures for the IC50 in series [3] and in series [5] were 510 nM and 500 nM, respectively. Further, in [4], the Ratio IC50 was determined as 0.98.
Consider `Cc1nc2cc(Cl)c(Cl)cc2n2cccc12`, for which, in [2], the Activity was above 90%. Moreover, the IC50 is 570 nM in [3] and above 25000 nM in series [5]. Also, the Ratio IC50 in series [4] is above 43.
For the compound `CC1Nc2cc(C(F)(F)F)ccc2-n2cccc21` (stereo not drawn), the inhibition in [1] amounted to 56%. Besides, the Activity in series [2] was above 90%.
